# Measurements reported in patent US9040249B2, “Pan-kinase activation and evaluation of signaling pathways” (Beckman Coulter, Inc., priority 2008, dated 2015).
# Where “and” joins values, the source holds several entries; their conditions need not be identical. Identical values can stand only once. Entries after “also recorded” stand apart in the source; their conditions may differ.
# Key:
# [1] = tested on: ribosomal S6 protein; assay: Inhibition of S6 activation by LPS with ERK and PI3K inhibitors; type: cell-based, human
# Experimental: (§1) 100 μl of blood was inserted into the bottom of 12×75 mm tubes. Blood was removed from the side of tube with cotton swab to eliminate potential contamination of the sample with unfixed cells. 100 ng lipopolysaccharide (LPS) was added to activation tubes (or equal volume of phosphate buffered saline (PBS) to control tubes) and the tubes were placed in 37° C. water bath.
# (§2) After various incubation times (e.g. 1 minute to 60 minutes), the first tube was removed from the incubator and 65 μl 10% formaldehyde was added into tube. The tubes were mixed and placed in a rack and incubated at room temperature. After exactly a 10 minute incubation with formaldehyde, 1 ml Lyse/Permeabilization Buffer ([…] TRITON X-100 10% stock solution to 500 ml with PBS. 0.1165% TRITON X-100 solution at room temperature in the dark and pre-heated to 37° C. immediately prior to use.) was added to each tube, vortexed vigorously and returned to the rack. The tubes were incubated at room temperature for 15 minutes.
# 2 ml cold Wash Buffer (PBS (w/o Ca++/Mg++) with 4% FBS, sterile filtered (0.22 um filter)) (4° C.) was added to each tube. All tubes were centrifuged at 500×g for 4 minutes. […]
# Antibodies and cold Wash Buffer were added to a final volume of 100 μl and incubated at room temperature for 30 minutes. […] Cells were resuspended in 1 ml Wash Buffer, vortexed and analyzed on the flow cytometer. […]
# [2] = tested on: ERK; assay: LPS activation of MAPK signaling in whole blood monocytes, flow cytometry (P-ERK); type: cell-based, human
# Experimental: as §1, §2
# (§3) 2 ml cold Wash Buffer (PBS (w/o Ca++/Mg++) with 4% FBS, sterile filtered (0.22 um filter)) (4° C.) was added to each tube. All tubes were centrifuged at 500×g for 4 minutes. Tubes were removed from the centrifuge and supernate fluid was aspirated. 1 ml of cold (4° C.) 50% methanol was added to each tube and vortexed. All tubes were then incubated on ice for 10 minutes.
# (§4) The tubes were then centrifuged at 500×g for 4 minutes and the supernate fluid was aspirated. 2 ml cold Wash Buffer (4° C.) was added to each tube. All tubes were centrifuged at 500×g for 4 minutes. Tubes were removed from the centrifuge and supernate fluid was aspirated.
# (§5) Antibodies and cold Wash Buffer were added to a final volume of 100 μl and incubated at room temperature for 30 minutes. 2 ml cold Wash buffer was added, mixed and centrifuged. Cells were resuspended in 1 ml Wash Buffer, vortexed and analyzed on the flow cytometer.
# (§6) In this study, a simultaneous measurement of four different signaling phospho-epitopes, which include P-ERK, P-p38 MAP Kinase, P-SAPK (Stress-Activated Protein Kinase), and P-S6 ribosomal protein (a measurement of new polypeptide synthesis), was conducted. This assay employed a measurement of the time course of LPS activation, in both “naive” whole blood, and whole blood samples previously exposed to LPS activation (“re-activated”). This assay also employed the fixation and permeabilization approach described above to measure both cell surface (CD14 to identify monocytes) and cytoplasmic or nuclear localized phospho-epitopes (P-ERK, P-p38, P-SAPK, and P-S6). This assay also employed an internal negative control to analyzing the data, relying on populations, rather than isotype controls, and measuring changes in MFI (mean fluorescence intensity) rather than percent positive.
# [3] = tested on: p38 MAP Kinase; assay: LPS activation of MAPK signaling in whole blood monocytes, flow cytometry (P-p38); type: cell-based, human
# Experimental: as §1, §2, §3, §4, §5, §6
# [4] = tested on: SAPK/JNK; assay: LPS activation of MAPK signaling in whole blood monocytes, flow cytometry (P-SAPK/JNK); type: cell-based, human
# Experimental: as §1, §2, §3, §4, §5, §6
# [5] = tested on: ribosomal S6 protein; assay: LPS activation of ribosomal S6 protein in whole blood monocytes, flow cytometry (P-S6); type: cell-based, human
# Experimental: as §1, §2, §3, §4, §5, §6
# [6] = tested on: ERK; details: cited from earlier work
# [7] = normal samples not previously exposed to LPS
# [8] = normal whole blood, LPS 10 minutes at 37° C.
# [9] = re-stimulation after 60 minutes, up to 2 hours
# [10] = previously LPS-stimulated, 0 time of re-exposure
# [11] = up to 120 minutes post stimulation
molecule,measurement,setting,value
N#CC(=C(/N)Sc1ccccc1N)/C(C#N)=C(\N)Sc1ccccc1N [U0126],inhibition of S6 activation by LPS,[1]; ERK inhibitor U0126 and PI3K inhibitor Ly294002 both present,inhibition of phosphorylation was seen; also recorded: Complete inhibition
same,inhibition of S6 activation by LPS,[1]; inhibitor alone,Only inhibition of both pathways leads to complete inhibition
lipopolysaccharide [LPS],ERK pathway activity after 60 minutes of LPS activation,[2]; 60 minutes,"decreased, but do not return to baseline"
same,"early P-ERK peak, time after LPS addition",[2]; [7],1 to 4 min
same,"second P-ERK peak, time after LPS stimulation",[2]; [7],10 to 15 min
same,activated ERK in CD14+ monocytes,[2]; [8],"all CD14+ monocytes have activated p-38, JNK, and ERK"
same,ERK activity when additional LPS is added,[2]; [9],no additional increase in any MAPK activity
same,ERK activation six minutes after LPS activation,"[2]; six minutes, 37° C.",initial ERK activation declines
same,MFI of P-ERK upon re-exposure to LPS,"[2]; up to 90 minutes after LPS re-stimulation, versus 0 time control",does not change significantly above the 0 time control
same,"earliest ERK activation, time following LPS stimulation","[2]; whole blood monocytes, 37° C., before JNK or p38 activation",2 min
same,percentage of P-p38 positive monocytes,[3]; 15 min after LPS re-exposure,46%
same,aggregate MFI of P-p38,[3]; 15 minutes after re-exposure to LPS,5.5
same,p38 pathway activity after 60 minutes of LPS activation,[3]; 60 minutes,"decreased, but do not return to baseline"
same,monocytes retaining the same P-p38 MFI as in the 15 min primary response,[3]; 120 min after primary LPS stimulation,Roughly 50%
same,monocyte population showing significant increase in P-p38 MFI,[3]; after primary LPS stimulation,about 100%
same,levels of P-p38 after primary LPS stimulation,[3]; even after periods of 120 min,do not return to basal levels
same,activated p38 in CD14+ monocytes,[3]; [8],"all CD14+ monocytes have activated p-38, JNK, and ERK"
same,aggregate MFI of P-p38,[3]; [10],5.0
same,percentage of P-p38 positive monocytes,[3]; [10],40%
same,time to maximal P-p38 MFI after LPS stimulation,[3]; primary LPS stimulation,15 min
same,P-p38 MFI peak time after restimulation with LPS,[3]; re-stimulation,15 to 20 min
same,p38 activity when additional LPS is added,[3]; [9],no additional increase in any MAPK activity
same,JNK pathway activity after 60 minutes of LPS activation,[4]; 60 minutes,"decreased, but do not return to baseline"
same,time of P-SAPK peak after initial LPS stimulation,[4]; initial stimulation,15 min
same,activated JNK in CD14+ monocytes,[4]; [8],"all CD14+ monocytes have activated p-38, JNK, and ERK"
same,JNK activity when additional LPS is added,[4]; [9],no additional increase in any MAPK activity
same,P-SAPK levels after initial LPS stimulation,[4]; [11],do not return to basal levels
same,P-SAPK positive monocytes,[4]; [11],30-40%
same,peak activation of S6 relative to other pathway proteins,[5]; LPS stimulated monocytes,later than other MAPK pathway proteins
same,time of P-S6 peak after LPS stimulation,"[5]; normal individuals, primary stimulation",15 to 30 min and 15 to 60 min
same,persistence of P-S6 levels following LPS stimulation,[5]; primary stimulation,> 120 min
same,MFI of the P-S6 population following LPS re-stimulation,[5]; re-stimulation,little change in the MFI
same,percent of monocytes expressing phospho-ERK after LPS treatment in vitro,"[6]; normal controls, 15 min after LPS addition, 35% without LPS",58%
same,increase in P-ERK monocytes following LPS addition in vitro,"[6]; presumably septic patients, 25% before LPS",less than 10%
